In patent publication US10617705B1, “Isoquercitrin compositions” (priority 2019, dated 2020):

Assay: Stability of isoquercitrin (or catechin) in solution with L-arginine and sodium ascorbate at 50° C., by HPLC
Type: physicochemical
Conditions: aqueous solution with L-arginine and sodium ascorbate; for amount of intact compound remaining, of the initial amount in the solution: HPLC
Protocol: An exemplary isoquercitrin/L-arginine mixture was prepared by mixing 0.01 mol isoquercitrin with an aqueous solution containing 0.02 mol L-arginine, heating the mixture to 80° C. until the isoquercitrin dissolved completely, and adding 0.001 mol sodium ascorbate. After cooling, the stability of isoquercitrin was tested by heating the mixture to 50° C. and quantifying by HPLC the amount of intact isoquercitrin remaining after 0 h, 5 h, and 24 h.

amount of intact compound remaining, of the initial amount in the solution (5 h at 50° C.): 100%
amount of intact compound remaining, of the initial amount in the solution (24 h at 50° C.): 98.1%
compound degraded (after 24 h at 50° C.): 1.9%
SMILES: O=c1c(O[C@@H]2O[C@H](CO)[C@@H](O)[C@H](O)[C@H]2O)c(-c2ccc(O)c(O)c2)oc2cc(O)cc(O)c12 [isoquercitrin]
